Key:
[1] = system: full thickness excision wounds; assay: In vivo evaluation for wound healing: full thickness excision wounds on the dorsum of mice
Description: Example 10: In Vivo Evaluation of the LCB's for Wound Healing: Twenty, 5-6 week old Balbc/J (stock #000651) male mice were transferred to Jackson Labs in vivo research laboratory in Sacramento, Calif. The mice were ear notched for identification and housed in individually and positively ventilated polycarbonate cages with HEPA filtered air. Bed-o-cob corn cob bedding was used and cages were changed every two weeks. The animal room is lighted entirely with artificial fluorescent lighting, with a controlled 12 h light/dark cycle. The normal temperature and relative humidity ranges in the animal rooms are 22 t 4° C. and 50 t 15%, respectively. The animal rooms were set to have 15 air exchanges per hour. Filtered tap water, acidified to a pH of 2.8 to 3.1, and rodent chow was provided ad libitum. Following a 5-7 days acclimation, mice were randomized by body weight into 2 cohorts of 10 mice each. On study day 0, mice were anesthetized and two full thickness excision wounds (˜6 mm) were made on the dorsum (backs) of mice. One of the wounds was covered using a semi-occlusive polyurethane dressing (Tegaderm™). Dressings covered the wounds for 5 consecutive (5) days from the day of wounding (d 0). The doses of 4-hydroxy-4′-methoxytolan were based on those that promoted lesion healing in mice in previous herpes virus studies. Wound measurements were made on day 5, 7, 9 and 11. Digital images of wounds were taken of each mouse. Test agents were a viscous paste and wounds were surrounded with a saddle glued in place to eliminate cross contamination and wound closure due to contraction. Therefore, changes in wound area are due to re-epithelization. During the five days all wounds are covered with glycerin (control) or glycerin and test agent. At day 5, test agents were removed and changes in wound area were measured (as area/area %) in an effort to gauge the persistence of the compounds in the wound site. By day 5, glycerin produced 26.1% wound closure, whereas 4-hydroxy-4′-methoxytolan (2.5%) closed produced 92.8% wound closure and 5% 4-hydroxy-4′-methoxytolan produced 91.4% wound closure. Prior to statistical analysis a test for Normality was run and a Z-score computed to confirm a normally distributed area for each wound on day 1 for all mice across groups, r^2=0.989. Statistics are computed based One-Way ANOVA's comparing changes in wound area on day 5. All mice tolerated the treatments and all weekly clinical observations report bright, alert, responsive, and hydrated mice.

[2] = system: skin (keratinocyte layer, dermis); assay: H&E staining of excised skin samples; assay type: in vivo; details: 5% (w/v)
Description: Example 11: Excised skin samples treated with a control or with 5% (w/v) 4-hydroxy-4′-methoxytolan.

[3] = 2.5% (w/v) topical in glycerin, day 0
[4] = 2.5% (w/v) topical in glycerin, day 5
[5] = 2.5% (w/v) topical in glycerin, day 7
[6] = 2.5% (w/v) topical in glycerin, day 9
[7] = 2.5% (w/v) topical in glycerin, day 11
[8] = 5% (w/v) topical in glycerin, day 0
[9] = 5% (w/v) topical in glycerin, day 5
[10] = 5% (w/v) topical in glycerin, day 7
[11] = 5% (w/v) topical in glycerin, day 9
[12] = 5% (w/v) topical in glycerin, day 11

COc1ccc(C#Cc2ccc(O)cc2)cc1 [4-hydroxy-4′-methoxytolan]
Average Area [1, 3]: 2.07 cm^2
Wound Area (%) Closed [1, 3]: 0%
Average Area [1, 4]: 0.15 cm^2
Wound Area (%) Closed [1, 4]: 92.8%
Average Area [1, 5]: 0.04 cm^2
Wound Area (%) Closed [1, 5]: 100%
Average Area [1, 6]: 0.00 cm^2
Wound Area (%) Closed [1, 6]: 100.0%
Average Area [1, 7]: 0.00 cm^2
Wound Area (%) Closed [1, 7]: 100.0%
Average Area [1, 8]: 1.98 cm^2
Wound Area (%) Closed [1, 8]: 0%
Average Area [1, 9]: 0.17 cm^2
Wound Area (%) Closed [1, 9]: 91.4%
Average Area [1, 10]: 0.08 cm^2
Wound Area (%) Closed [1, 10]: 100%
Average Area [1, 11]: 0.00 cm^2
Wound Area (%) Closed [1, 11]: 100.0%
Average Area [1, 12]: 0.00 cm^2
Wound Area (%) Closed [1, 12]: 100.0%
Tolerability of treatment, weekly clinical observations ([1]; topical 2.5% and 5%, Balbc/J male mice): tolerated
Keratinocyte proliferation ([2]; H&E staining): extensive keratinocyte proliferation
Keratinocyte cell layers ([2]; control 1-2 cells thick): 7-8 cells thick
